The results in this text go back to patent US8143290B2, “Chemical compounds 572” (AstraZeneca AB, priority 2006, dated 2012).

The test concerns the target T1, recombinant human GR (Homo sapiens, UniProt P04150).
T1 construct: purchased Panvera/Invitrogen P2812 (kit P2893)
T1 sequence (P04150 1-777): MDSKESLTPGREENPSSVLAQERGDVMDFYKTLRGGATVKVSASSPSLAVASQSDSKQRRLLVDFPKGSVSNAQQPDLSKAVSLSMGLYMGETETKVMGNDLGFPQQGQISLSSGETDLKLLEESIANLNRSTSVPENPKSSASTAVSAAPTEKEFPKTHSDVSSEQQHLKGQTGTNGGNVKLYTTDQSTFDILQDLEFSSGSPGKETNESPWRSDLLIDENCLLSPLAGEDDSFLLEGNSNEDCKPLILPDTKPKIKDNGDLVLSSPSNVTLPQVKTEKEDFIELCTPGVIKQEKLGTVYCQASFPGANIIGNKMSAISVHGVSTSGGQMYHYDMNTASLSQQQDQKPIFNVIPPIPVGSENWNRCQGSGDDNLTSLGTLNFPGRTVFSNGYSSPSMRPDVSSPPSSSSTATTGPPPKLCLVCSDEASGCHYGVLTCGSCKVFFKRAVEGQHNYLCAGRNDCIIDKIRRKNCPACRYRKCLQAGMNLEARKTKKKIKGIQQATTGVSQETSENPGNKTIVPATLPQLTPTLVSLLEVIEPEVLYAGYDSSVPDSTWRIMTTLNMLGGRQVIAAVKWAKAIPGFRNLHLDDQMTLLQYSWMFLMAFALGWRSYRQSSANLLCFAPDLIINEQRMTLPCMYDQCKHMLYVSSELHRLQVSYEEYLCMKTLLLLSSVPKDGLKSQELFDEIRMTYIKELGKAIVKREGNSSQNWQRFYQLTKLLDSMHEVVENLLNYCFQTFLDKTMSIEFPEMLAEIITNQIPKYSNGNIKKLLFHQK
Description: Human Glucocorticoid Receptor (GR) Assay, fluorescence polarization. Conditions: GS Red tracer, incubated 2 h at r.t., XLfit model 205, read-out: GRhuFL_FP_v2 Mean IC50. The test is classed as binding. The method, then:
Human Glucocorticoid Receptor (GR) Assay
The assay is based on a commercial kit from Panvera/Invitrogen (Part number P2893). The assay technology is fluorescence polarization. […] The GR and Stabilizing Peptide reagents are stored at −70° C. while the GS Red is stored at −20° C. Also included in the kit are 1M DTT (Panvera, Part number P2325, stored at −20° C.) and GR Screening buffer 10× (Panvera, Part number P2814, stored at −70° C. initially but once thawed stored at r.t.). Avoid repeated freeze/thaws for all reagents. The GR Screening buffer 10× comprises 100 mM potassium phosphate, 200 mM sodium molybdate, 1 mM EDTA and 20% DMSO.
0% control was 100% DMSO and 100% control was […] Dexamethasone. Background solution (8 μL; assay buffer 10×, Stabilizing Peptide, DTT and ice cold MQ water) was added to the background wells. GS Red solution (7 μL; assay buffer 10×, Stabilizing Peptide, DTT, GS Red and ice cold water) was added to all wells except background wells. GR solution (7 μL; assay buffer 10×, Stabilizing Peptide, DTT, GR and ice cold water) was added to all wells. The plate was sealed and incubated in a dark at r.t. for 2 h.
In general terms: Fluorescence polarisation rises when a labelled molecule tumbles more slowly, as on binding a larger partner.
Broadly, the IC50 is the concentration that gives 50% inhibition. In the case of `COc1cccc([C@@H](Oc2ccc3c(cnn3-c3ccc(F)cc3)c2)[C@H](C)NC(=O)CNC(N)=O)c1` [Example 270, 2-(carbamoylamino)-N-[(1R,2S)-1-[1-(4-fluorophenyl)indazol-5-yl]oxy-1-(3-methoxyphenyl)propan-2-yl]acetamide], the IC50 amounted to 8.1 nM.
The value for `C[C@H](NC(=O)C(F)(F)F)[C@H](Oc1ccc2c(cnn2-c2ccc(F)cc2)c1)c1ccc(F)c(F)c1` [Example 150, N-[(1R,2S)-1-(3,4-difluorophenyl)-1-[1-(4-fluorophenyl)indazol-5-yl]oxy-propan-2-yl]-2,2,2-trifluoro-acetamide] was 4.6 nM.
The value for `Cc1cc(F)ccc1[C@@H](Oc1ccc2c(cnn2-c2ccc(F)cc2)c1)[C@H](C)NC(=O)C1(C)CC1` [Example 219, N-[(1R,2S)-1-(4-fluoro-2-methyl-phenyl)-1-[1-(4-fluorophenyl)indazol-5-yl]oxy-propan-2-yl]-1-methyl-cyclopropane-1-carboxamide] was 2.8 nM; that for `C[C@H](NC(=O)C(F)(F)F)[C@H](Sc1ccc2c(cnn2-c2ccc(F)cc2)c1)c1ccccc1` [Example 103, 2,2,2-trifluoro-N-((1R,2S)-1-(1-(4-fluorophenyl)-1H-indazol-5-ylthio)-1-phenylpropan-2-yl)acetamide] was 2.6 nM.
The result for `C[C@H](NC(=O)C(F)(F)F)[C@H](Oc1ccc2c(cnn2-c2cccc(CN3CCOCC3)c2)c1)c1ccccc1` [Example 145, 2,2,2-trifluoro-N-((1R,2S)-1-(1-(3-(morpholinomethyl)phenyl)-1H-indazol-5-yloxy)-1-phenylpropan-2-yl)acetamide] reads 5.5 nM; that for `CCCc1ccc([C@@H](Oc2ccc3c(cnn3-c3ccc(F)cc3)c2)[C@H](C)NC(=O)C(F)(F)F)cc1` [Example 165, 2,2,2-trifluoro-N-[(1R,2S)-1-[1-(4-fluorophenyl)indazol-5-yl]oxy-1-(4-propylphenyl)propan-2-yl]acetamide], 6.4 nM.
With `COc1cccc([C@@H](Oc2ccc3c(cnn3-c3ccc(F)cc3)c2)[C@H](C)NC(=O)[C@H](C)O)c1` [Example 58, (2S)-N-[(1R,2S)-1-[1-(4-fluorophenyl)indazol-5-yl]oxy-1-(3-methoxyphenyl)propan-2-yl]-2-hydroxy-propanamide], the IC50 was found to be 2.7 nM.
The value for `COCC(=O)N[C@@H](C)[C@H](Oc1ccc2c(cnn2-c2ccc(F)cc2)c1)c1cccc(OC)c1` [Example 54, N-[(1R,2S)-1-[1-(4-fluorophenyl)indazol-5-yl]oxy-1-(3-methoxyphenyl)propan-2-yl]-2-methoxy-acetamide] was 2.9 nM; that for `Cc1ccc([C@@H](Oc2ccc3c(cnn3-c3ccc(F)cc3)c2)[C@H](C)NC(=O)C(C)(C)F)cc1F` [Example 242, 2-fluoro-N-[(1R,2S)-1-(3-fluoro-4-methyl-phenyl)-1-[1-(4-fluorophenyl)indazol-5-yl]oxy-propan-2-yl]-2-methyl-propanamide] was 5.5 nM.
The value for `C[C@H](NC(=O)C1(C)CC1)[C@H](Oc1ccc2c(cnn2-c2ccc(F)cc2)c1)c1ccc(C(C)(C)C)cc1` [Example 226, N-[(1R,2S)-1-[1-(4-fluorophenyl)indazol-5-yl]oxy-1-(4-tert-butylphenyl)propan-2-yl]-1-methyl-cyclopropane-1 carboxamide] was 7.2 nM; that for `COc1ccc(F)cc1[C@@H](Oc1ccc2c(cnn2-c2ccc(F)cc2)c1)[C@H](C)NC(=O)C1(C)CC1` (stereo in doubt) [Example 268, N-[(1R,2S)-1-(5-fluoro-2-methoxy-phenyl)-1-[1-(4-fluorophenyl)indazol-5-yl]oxy-propan-2-yl]-1-methyl-cyclopropane-1-carboxamide] was 3.1 nM.
For `C[C@H](NC(=O)CO)[C@H](Oc1ccc2c(cnn2-c2ccc(F)cc2)c1)c1ccc2c(c1)OCCO2` [Example 123, N-((1R,2S)-1-(2,3-dihydrobenzo[b][1,4]dioxin-6-yl)-1-(1-(4-fluorophenyl)-1H-indazol-5-yloxy)propan-2-yl)-2-hydroxyacetamide], the IC50 came to 4.2 nM.
`COCC(=O)N[C@@H](C)[C@H](Oc1ccc2c(cnn2-c2ccc(F)cc2)c1)c1ccccc1` [Example 31, N-[(1R,2S)-1-[1-(4-fluorophenyl)indazol-5-yl]oxy-1-phenyl-propan-2-yl]-2-methoxy-acetamide]: the IC50 was 2.8 nM.
The result for `Cc1cc(F)ccc1[C@@H](Oc1ccc2c(cnn2-c2ccc(F)cc2)c1)[C@H](C)NC(=O)C(C)(C)F` [Example 248, 2-fluoro-N-[(1R,2S)-1-(4-fluoro-2-methyl-phenyl)-1-[1-(4-fluorophenyl)indazol-5-yl]oxy-propan-2-yl]-2-methyl-propanamide] reads 4.8 nM; that for `COc1cccc([C@@H](Oc2ccc3c(cnn3-c3ccc(F)cc3)c2)[C@H](C)NC(=O)c2scnc2C)c1` [Example 289, N-[(1R,2S)-1-[1-(4-fluorophenyl)indazol-5-yl]oxy-1-(3-methoxyphenyl)propan-2-yl]-4-methyl-1,3-thiazole-5-carboxamide], 3.9 nM.
The value for `COc1cccc([C@@H](Oc2ccc3c(cnn3-c3ccc(F)cc3)c2)[C@H](C)NC(=O)c2ccc(Br)s2)c1` [Example 272, 5-bromo-N-[(1R,2S)-1-[1-(4-fluorophenyl)indazol-5-yl]oxy-1-(3-methoxyphenyl)propan-2-yl]thiophene-2-carboxamide] was 4.3 nM.
The value for `Cc1cnc(C(=O)N[C@@H](C)[C@H](Oc2ccc3c(cnn3-c3ccc(F)cc3)c2)c2cccc(Cl)c2)s1` [Example 199, N-[(1R,2S)-1-(3-chlorophenyl)-1-[1-(4-fluorophenyl)indazol-5-yl]oxy-propan-2-yl]-5-methyl-1,3-thiazole-2-carboxamide] was 7.4 nM; that for `C[C@H](NC(=O)C(C)(C)CO)[C@H](Oc1ccc2c(cnn2-c2ccc(F)cc2)c1)c1ccc(F)c(F)c1` [Example 251, N-[(1R,2S)-1-(3,4-difluorophenyl)-1-[1-(4-fluorophenyl)indazol-5-yl]oxy-propan-2-yl]-3-hydroxy-2,2-dimethyl-propanamide] was 5.3 nM.
As for `COc1cccc([C@@H](Oc2ccc3c(cnn3-c3ccc(F)cc3)c2)[C@H](C)NC(=O)c2ccncn2)c1` [Example 88, N-((1R,2S)-1-(1-(4-fluorophenyl)-1H-indazol-5-yloxy)-1-(3-methoxyphenyl)propan-2-yl)pyrimidine-4-carboxamide], the IC50 turned out to be 3.2 nM.
For the compound `C[C@H](NC(=O)C(C)(C)CO)[C@H](Oc1ccc2c(cnn2-c2ccc(F)cc2)c1)c1cccc(F)c1` [Example 253, N-[(1R,2S)-1-(3-fluorophenyl)-1-[1-(4-fluorophenyl)indazol-5-yl]oxy-propan-2-yl]-3-hydroxy-2,2-dimethyl-propanamide], the IC50 turned out to be 7.5 nM.
`C[C@H](NC(=O)C(C)(C)CO)[C@H](Oc1ccc2c(cnn2-c2ccc(F)cc2)c1)c1cccc(Cl)c1` [Example 255, N-[(1R,2S)-1-(3-chlorophenyl)-1-[1-(4-fluorophenyl)indazol-5-yl]oxy-propan-2-yl]-3-hydroxy-2,2-dimethyl-propanamide]: the IC50 was found to be 5.1 nM.
Turning to `COc1cccc([C@@H](Oc2ccc3c(cnn3-c3ccc(F)cc3)c2)[C@H](C)NC(=O)C(=O)OC(C)C)c1` [Example 77, Propan-2-yl [(1R,2S)-1-[1-(4-fluorophenyl)indazol-5-yl]oxy-1-(3-methoxyphenyl)propan-2-yl]carbamoylformate], the IC50 is 2.6 nM.
The value for `CNC(=O)C(=O)N[C@@H](C)[C@H](Oc1ccc2c(cnn2-c2ccc(F)cc2)c1)c1cccc(OC)c1` [Example 79, N-[(1R,2S)-1-[1-(4-Fluorophenyl)indazol-5-yl]oxy-1-(3-methoxyphenyl)propan-2-yl]-N′-methyl-oxamide] was 2.6 nM; that for `COc1cccc([C@@H](Oc2ccc3c(cnn3-c3ccc(F)cc3)c2)[C@H](C)NC(=O)c2cc(C#N)cs2)c1` [Example 275, 4-cyano-N-[(1R,2S)-1-[1-(4-fluorophenyl)indazol-5-yl]oxy-1-(3-methoxyphenyl)propan-2-yl]thiophene-2-carboxamide] was 4 nM.
